In patent US10865203B2, “Ligands selective to alpha 6 subunit-containing GABAA receptors and their methods of use” (UWM Research Foundation, Inc., priority 2015, dated 2020):

What was measured:
[1] = test system: mice, motor coordination; test: Rotarod test; type: in vivo, mouse; settings: 3 mg/kg, 15 min after treatment
Description: The motor coordinating activity of the mouse was measured by its performance on a rotarod in the sdi rotor-rodtm system (San Diego Instruments, San Diego, Calif.). The mouse was trained four times a day for 3 days until it could stay on the rotating drum at a rotating speed of 24 rpm for at least 120 sec. Then, the mouse was subjecting to the rotarod test at the rotating speed accelerating gradually from 0 to 30 rpm, and the latency to fall from the rotating drum was recorded. The cut-off time for the latency to fall was 300 sec. Animals were treated with the tested drug or vehicle for 15 min before receiving the test.

[2] = test system: mice, apomorphine-induced stereotypy climbing; test: Apomorphine-induced stereotypy behaviors; type: in vivo, mouse; settings: 3 mg/kg i.p., apomorphine 1 mg/kg s.c.
Description: The mouse was placed into a lidded cylindrical cage (diameter: 12 cm; height: 14 cm) made with 1 cm-separated metal grids for 1 hour's habituation. Then, the mouse received apomorphine (1 mg/kg, s.c.) Injection. The behaviors of the mouse were videotaped, and the stereotypy behaviors were scored every 5 min for 1 min, starting from 15 min before apomorphine injection until 60 min after injection.
The stereotypy behaviors induced by apomorphine were scored by reference to a previous report (Park et al. 2003) with modifications as the followings: 0: normal behaviors (sleeping, normal sniffing); 1: increased activity and sniffing (grooming, rearing, paw licking, jumping); 2: occasional clinging to the side wall of the cage with forepaws; 3: intermittent clinging to the top lid of the cage with all four paws; 4: uninterrupted climbing with all four paws to the top lid. The highest rating score during the 1 min-recording period was counted.

[3] = test system: mice, step-down latency; test: Sedation assessment; type: in vivo, mouse; settings: 3 mg/kg i.p.
Description: The degree of sedation was measured by the latency for a mouse to completely step down from a slightly (3 cm) raised plastic platform (11×8 cm) by reference to a previous report (Horan et al. 1991). The mouse was placed on the platform 15 min after receiving i.p. Injection of the tested drug. The latency (in sec) for the mouse to step down the platform with all four paws was recorded. The baseline latency of each mouse before drug treatment was measured and, if longer than 15 sec, the mouse was discarded from the study. A cut-off time of 60 sec was taken as the maximal sedative effect. The percentage of sedation was calculated by the formula: sedation %=(test latency−baseline latency)/(60−baseline latency)×100%.

[4] = test system: mice, methamphetamine-induced hyperlocomotion; test: Locomotor activity, methamphetamine-induced hyperlocomotion; type: in vivo, mouse
Description: The locomotor activity of the mouse was measured by its interruptions of infra-red photobeans in a locomotor cage (42 cm×42 cm×36 cm) in the photobeam activity system (San Diego Instruments, San Diego, Calif.). After acclimation, the mouse was treated with ci extract or vehicle for 15 min, followed by ma (2 mg/kg). Then, the mouse was gently placed in the locomotor cage and the horizontal and vertical interruptions were counted every 5 min for 60 min. Total locomotor activity was the sum of interruptions within 60 min.
Mice were anaesthetized with sodium pentobarbital (60 mg/kg i.p.) And placed in a stereotaxic frame keeping the bregma-lambda axis horizontal. After shaving the hair and exposing the skull surface, the mouse was implanted with two 24-gauge stainless-steel guide cannulas, respectively, directing towards the right and left lateral cerebella (−6.4 mm caudal, ±1.5 mm lateral, −1.0 mm ventral from bregma) according to the stereotaxic coordinate of the mouse (Paxions 2001). The cannulas were fixed on the top of the skull by stainless steel screws and dental cement. The animal was allowed to fully recover after surgery for at least one week before the behavioral test was conducted.
On the day for behavioral tests, a 30-gauge injection cannula connected to a 1 μL hamilton syringe was inserted into the guide cannula for drug injection. The drug solution of 0.5 μL in each side was slowly infused with a microinfusion pump (kds311, kd scientific inc.) For 30 s with a further “hold” time for 60 s. The microinjection site was confirmed by the positive staining of trypan blue, which was injected through the cannula after behavioral tests. Data from mice with offsite injections were discarded.

[5] = test system: IoN-CCl Wistar rats; test: IoN-CCl model, face grooming during body grooming; type: in vivo, rat; settings: 10 mg/kg i.p. daily; 10 min of recording
Description: (§1) Chronic constriction injury (CCl) is a common neuropathic pain model. The unilateral ligature of the infraorbital nerve (IoN) in rats, as an animal model of peripheral neuropathic pain, and more specifically, trigeminal neuralgia and trigeminal neuropathy, was performed as described by Desuere and Hans (Deseure et al. J. Vis. Exp. 2015, 103, e53167). Wistar rats (46 in total) were randomly assigned to one of four experimental groups and then were behaviorally tested in a blinded manner. For studying the effects of subchronic treatment with the nanoemulsion formulation of DK-I-56-1 in IoN-CCl rats, DK-I-56-1 (10 mg/kg i.p.) or its vehicle (placebo nanoemulsion i.p.) were injected daily for 14 consecutive days after surgery. Sham-operated rats were treated in parallel. By a procedure slightly modified from Djordjevic et al. (Int. J. Pharm. 2015, 493, 40-54), biocompatible nanoemulsions were prepared by high pressure homogenization at 50° C. […] First, the response to the application of a graded series of three von Frey filaments onto ipsilateral vibrissal pad was measured on pre-operative days −3 and −1 and post-operative days 7, 14, 21, and 28. […] The other parameter, face grooming during body grooming, was manually assessed during 10 min of recording on pre-operative day −2 and post-operative days 2, 4, 8, and 15 (i.e. after 1, 3, 7, and 14 applications of treatment). […]

[6] = test system: IoN-CCl Wistar rats; test: IoN-CCl neuropathic pain model, von Frey filaments; type: in vivo, rat
Description: as §1

[7] = Pharmacokinetic study in mice, plasma and brain; type: in vivo, mouse; settings: nanoemulsion
Description: Five pharmacokinetic studies have been performed; four in male Wistar rats and one in male Swiss mice. […] At predetermined time intervals, i.e., 5, 20, 60, 180, and 720 min after dosing, the blood and brain samples of the rat were collected. […] At predetermined time intervals, i.e., 5, 20, 40, 120, and 360 min, the blood and brain samples of the mouse were collected.

| Structure (SMILES) | motor coordination in the rotarod test [1] | stereotypy climbing behaviors induced by apomorphine [2] | sedation [3] | effect of intra-cerebellum furosemide on the rescue of hyperlocomotion ([4]; furosemide 10 nmol) | methamphetamine-induced hyperlocomotion ([4]; mice, 3 mg/kg i.p., METH 2 mg/kg i.p., 60 min) | spontaneous motor activity ([4]; mice, 3 mg/kg i.p., saline instead of METH) | face grooming during body grooming [5] | anti-allodynic effect, response score to von Frey filaments, post-operative days 14 and 21 ([6]; 10 mg/kg i.p. nanoemulsion daily for 14 days after surgery) | anti-allodynic effect, post-operative day 28 ([6]; 14 days after the last dose) | total concentrations in mouse brain ([7]; 10 mg/kg i.p.) | maximum concentration in mouse brain ([7]; 30 mg/kg i.p.) [µmol/L] |
| --- | --- | --- | --- | --- | --- | --- | --- | --- | --- | --- | --- |
| COc1ccc(-n2nc3c4ccc(OC)cc4[nH]cc-3c2=O)cc1 [Compound 6, 7-Methoxy-2-(4-methoxyphenyl)-2,5-dihydro-3H-pyrazolo[4,3-c]quinolin-3-one] | did not affect | did not affect | neither displayed any significant sedation | significantly antagonized | significantly rescued | did not affect |  |  |  |  |  |
| [2H]C([2H])([2H])Oc1ccc(-n2nc3c4ccc(OC)cc4[nH]cc-3c2=O)cc1 [DK-I-56-1, 7-Methoxy-2-(4-methoxy-d3-phenyl)-2,5-dihydro-3H-pyrazolo[4,3-c]quinolin-3-one] |  |  |  |  |  |  | lack of sedation-like or motor-impairing influences | statistically significant | disappeared | submicromolar | 7.5 |
